# According to paper PMC9537572, “Elucidation of the binding mechanism of astragaloside IV derivative with human serum albumin and its cardiotoxicity in zebrafish embryos” (Frontiers in Pharmacology, 2022):
# Marks after values point to notes of the source that are not given here.
# Assays:
# zebrafish = test: Arachidonic acid-induced thrombosis in zebrafish; type: in vivo; settings: for Staining intensity of cardiac red blood cells (pixels) (mean ± se): 3 h pretreatment, arachidonic acid 1.5 h, n = 10; for Antithrombotic effect (%): vs. model group, arachidonic acid-induced thrombosis
# Procedure: A total of 270 melanin allele mutant translucent albino strain zebrafish at 3 dpf were randomly selected, with 30 zebrafish per well in six-well plates. The concentrations of LS-102 were 6.25, 12.5, 25, 50, and 100 µg/ml, while that of AGS IV was 100 µg/ml, and the positive control drug aspirin was 25 µg/ml. After treatment with LS-102 and AGS IV for 3 h, arachidonic acid aqueous solution was administered for 1.5 h to induce a thrombosis model in zebrafish in all experimental groups except the normal group. After staining with o-anisidine, zebrafish were randomly selected from each experimental group and observed under a dissecting microscope and photographed. Data were collected to qualitatively evaluate thrombosis in zebrafish, and the intensity of cardiac erythrocyte staining (length of venous thrombus vs. number of cardiac erythrocytes) in zebrafish was analyzed and counted to establish, the preventive effect of LS-102 and AGS IV with aspirin on thrombosis in zebrafish. The formula was calculated as follows:
# Thromboprophylactic effect (%) = S (drug administration group)−S (model group)/S (nomal control group)−S (model group)×100%
# zebrafish embryos [1] = test: Astemizole-induced toxicity in zebrafish heart development; type: in vivo; settings: 250 µg/mL, n=30
# Procedure: A total of 270 wild-type AB zebrafish at 2 h post-fertilization (2 hpf) were randomly selected, and 30 zebrafish were plated in each well of a six-well plates. The concentrations of LS-102 were 27.8, 83.3 and 250 µg/ml, while that of AGS IV was 250 µg/mL. A normal control group (fish culture water) and a 4 µM astemizole model control group were also established. After LS-102 and AGS IV were cotreated with astemizole for 48 h, zebrafish heart development was observed and photographed under a microscope to evaluate the ameliorative effect of LS-102 and AGS IV on astemizole-induced toxicity in zebrafish heart development.
# HSA [2] = target: T1, HSA (Homo sapiens, UniProt P02768); test: Plasma protein binding rate by equilibrium dialysis and UHPLC-MS/MS; type: in vitro ADME; settings: human, plasma, equilibrium dialysis 72 h at 4 °C, n = 3, read-out: Protein binding rate (%, Mean±SD) (converted)
# T1 sequence (P02768 25-609): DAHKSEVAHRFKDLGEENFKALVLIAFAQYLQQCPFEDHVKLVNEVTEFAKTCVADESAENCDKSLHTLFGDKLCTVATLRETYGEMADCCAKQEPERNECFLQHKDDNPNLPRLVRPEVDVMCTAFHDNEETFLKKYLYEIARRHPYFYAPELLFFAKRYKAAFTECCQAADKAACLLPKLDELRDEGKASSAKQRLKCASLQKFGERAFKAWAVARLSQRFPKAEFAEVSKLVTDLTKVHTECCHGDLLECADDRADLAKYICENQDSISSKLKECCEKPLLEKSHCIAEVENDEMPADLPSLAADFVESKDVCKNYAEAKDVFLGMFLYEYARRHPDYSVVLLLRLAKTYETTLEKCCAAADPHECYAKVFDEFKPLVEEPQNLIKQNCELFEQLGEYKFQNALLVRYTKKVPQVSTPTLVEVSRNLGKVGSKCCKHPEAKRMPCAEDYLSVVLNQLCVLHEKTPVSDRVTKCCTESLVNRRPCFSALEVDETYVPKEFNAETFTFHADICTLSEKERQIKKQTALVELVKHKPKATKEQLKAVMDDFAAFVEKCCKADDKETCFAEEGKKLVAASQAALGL
# Procedure: The binding rate of AGS IV/LS-102 and HSA was determined using a slightly modified equilibrium dialysis method ([Metsu et al., 2020]). […] The stock solutions of HSA (0.5 ml) and drug group (0.5 ml) were placed in a dialysis membrane bag that was ligated at both ends and then immersed in a test tube filled with 50 ml of PBS solution for 72 h at 4 °C. After equilibrium, a 0.5-ml solution of outer dialysate and internal dialysate was collected into a 2-ml EP tube, and 10 µL IS (digoxin, 0.1 mg/ml) solution was added to each tube. Both samples were added to 1.5 ml of acetonitrile and vortexed for 3 min, and then the samples were separated via centrifugation at 18,000 × g for 20 min. The supernatants were transferred to another EP tube and dried under a nitrogen stream. The residue was redissolved in 1 ml methanol, sonicated for 2 min, vortexed for 3 min, and centrifuged at 18,000 × g for 10 min. The supernatant was filtered with a 0.22 µm microporous syringe filter in a 2 ml sample vial, and 1 µL was injected into the UHPLC-MS/MS system for analysis. The plasma protein binding rate was calculated according to the following formula ([Talbert et al., 2002]): Plasma binding rate=Internal drug concentration−External drug concentration/Initial drug concentration ×100%
# [3] = ref Xu et al., 2016; cited from earlier work
# zebrafish embryos [4] = test: Astemizole-induced cardiotoxicity in zebrafish embryos: heart rate and SV-BA spacing; type: in vivo; settings: 4 µM astemizole; for Heart rate (beats/min) (Mean±SE) / SV-BA spacing (µm) (Mean±SE): 250 µg/ml, n = 10
# Procedure: A total of 270 wild-type AB zebrafish at 3 dpf were randomly selected, and 30 zebrafish were plated in each well of a six-well plates. The concentrations of LS-102 were 27.8, 83.3 and 250 µg/ml, AGS IV was 250 µg/mL. A normal control group (fish culture water) and a 4 µM astemizole model control group were also established. Ten zebrafish were randomly selected from each group, and the heart rate and venous sinus-to-arterial bulb distance (SV-BA) of zebrafish were observed under a dissecting microscope after 2 h, 6 h and 24 h of LS-102 and AGS IV treatment. Images were collected by photographing, and the ameliorative effect of LS-102 and AGS IV on astemizole-induced cardiotoxicity in zebrafish was evaluated by the statistical significance of the heart rate and the SV-BA interval index.
# HSA [5] = target: T1, HSA; test: Site marker competitive experiments (warfarin, ibuprofen) by equilibrium dialysis; type: in vitro ADME; settings: drug 0.476 mg/ml, n = 3, read-out: Plasma protein binding (converted)
# Procedure: The site marker competitive experiments were performed using two classical site probes, warfarin and ibuprofen, which were selected as the markers of subdomain IIA (site I) and subdomain IIIA (site II) separately of HAS ([Ghuman et al., 2005]). The procedure was consistent with the method described in section 2.5, except that the concentrations of AGS IV and LS-102 were both fixed at 0.476 mg/ml, while the external dialysis solution was changed to contain the probe with a final concentration of 0, 0.06, 0.3, 1.2 mg/ml PBS solution. Briefly, the AGS IV/LS-102 HSA mixture (0.5 ml drug and 0.5 ml HSA) was separately incubated with three different concentrations of probe to evaluate the effects of warfarin or ibuprofen on drug-protein binding influence. Three replicates of each concentration were prepared. After equilibrium dialysis, the internal and external dialysates were analyzed by UHPLC-MS/MS.
smiles,measurement,setting,value
"CC(=O)Oc1ccccc1C(=O)O [Aspirin, aspirin, reference compound]",Staining intensity of cardiac red blood cells (pixels) (mean ± se),zebrafish; 25 µg/ml,2036 ± 92 pixels
same,Staining intensity of cardiac red blood cells (pixels) (mean ± se),"zebrafish; 25 µg/ml, listed as aspirin",2036 pixels
same,Antithrombotic effect (%),zebrafish; 25 µg/ml,70^*** %
same,Antithrombotic effect (%),"zebrafish; 25 µg/ml, listed as aspirin",70%
"CC(C)(O)C1CCC(C)(C2C(O)CC3(C)C4CC(OC5OC(CO)C(O)C(O)C5O)C5C(C)(C)C(OC6OCC(O)C(O)C6O)CCC56CC46CCC23C)O1 [AGS IV, 3-O-β-D-xylopyranosyl-6-O-β-D-glucopyranosyl-cycloastragenol, reference compound]",Staining intensity of cardiac red blood cells (pixels) (mean ± se),zebrafish; 100 µg/ml,1446 ± 54 pixels
same,Antithrombotic effect (%),zebrafish; 100 µg/ml,5%
same,"Phenotype: cardiac capsular oedema, lack of blood flow (share of zebrafish)","zebrafish embryos [1]; 4 µM astemizole, 48 h","100% cardiac capsular oedema, lack of blood flow"
same,Mortality,zebrafish embryos [1]; cotreated with 4 µM astemizole 48 h from 2 hpf,3.3%
same,"fraction unbound at 72 h, 0.238 mg/ml",HSA [2]; drug 0.238 mg/ml,0.0538
same,"fraction unbound at 72 h, 0.476 mg/ml",HSA [2]; drug 0.476 mg/ml,0.0258
same,"fraction unbound at 72 h, 0.714 mg/ml",HSA [2]; drug 0.714 mg/ml,0.0594
same,Degree of protein binding with human plasma,[3],up to 86.69%
same,Heart rate (beats/min) (Mean±SE),zebrafish embryos [4]; 2 h,148 ± 1 beats/min
same,SV-BA spacing (µm) (Mean±SE),zebrafish embryos [4]; 2 h,210 ± 4 µm
same,Heart rate (beats/min) (Mean±SE),zebrafish embryos [4]; 6 h,146 ± 2 beats/min
same,SV-BA spacing (µm) (Mean±SE),zebrafish embryos [4]; 6 h,242 ± 7 µm
same,Heart rate (beats/min) (Mean±SE),zebrafish embryos [4]; 24 h,75 ± 25 beats/min
same,SV-BA spacing (µm) (Mean±SE),zebrafish embryos [4]; 24 h,241 ± 4 µm
same,Effect on astemizole-induced heart rate slowing and SV-BA spacing increase (in words),zebrafish embryos [4]; 24 h,no significant changes
same,"fraction unbound at 72 h, 0.476 mg/ml",HSA [5]; with ibuprofen 0.06 mg/ml,0.0718
same,"fraction unbound at 72 h, 0.476 mg/ml",HSA [5]; with ibuprofen 0.3 mg/ml,0.0613
same,"fraction unbound at 72 h, 0.476 mg/ml",HSA [5]; with ibuprofen 1.2 mg/ml,0.0281
same,"fraction unbound at 72 h, 0.476 mg/ml",HSA [5]; with warfarin 0.06 mg/ml,0.051
same,"fraction unbound at 72 h, 0.476 mg/ml",HSA [5]; with warfarin 0.3 mg/ml,0.089
same,"fraction unbound at 72 h, 0.476 mg/ml",HSA [5]; with warfarin 1.2 mg/ml,0.0781
same,"fraction unbound at 72 h, 0.476 mg/ml",HSA [5]; without site markers,0.0333
